The test system of this assay is voltage-gated sodium channel (site 1, [3H]Saxitoxin binding). Also noted: species or system rat.
With `CCn1c(=N)n(CC(O)COc2ccc(Cl)cc2)c2ccccc21.Cl` (racemic) [Compound 21], the “% inhibition” value turned out to be 13%. On the same count and under the same terms, to `Cl.N=c1n(CCN2CCOCC2)c2ccccc2n1CC(O)c1ccco1` (racemic) [Compound 25] belongs 16%. Same read-out and setting: with `COc1ccc(C(O)Cn2c(=N)n(C)c3ccccc32)cc1.Cl` (racemic) [Compound 27] the figure was 17%; with `CCN(CC)CCn1c(=N)n(CC(O)c2ccc(OC)c(OC)c2)c2ccccc21.Cl` (racemic) [Compound 31], 19%; with `Cl.N=c1n(CCN2CCOCC2)c2ccccc2n1CC(O)COc1ccccc1` (racemic) [Compound 33], 20%. Turning to `Cl.N=c1n(CCN2CCOCC2)c2ccccc2n1CC(O)COc1ccc(Cl)cc1` (racemic) [Compound 35], the “% inhibition” value is given as 20%. Still for that read-out and setting: to `C=CCn1c(=N)n(CC(O)C(C)(C)C)c2ccccc21.Cl` (racemic) [Compound 36] belongs 22%; to `CCOc1ccc(C(O)Cn2c(=N)n(CCN3CCCCC3)c3ccccc32)cc1.Cl` (racemic) [Compound 37], 22%; to `C=CCn1c(=N)n(CC(O)c2ccc(Br)cc2)c2ccccc21.Cl` (racemic) [Compound 39], 24%. `Cl.N=c1n(CCN2CCCCC2)c2ccccc2n1CC(O)COc1ccc(Cl)cc1` (racemic) [Compound 40]: the “% inhibition” value was determined as 24%. As to `Cl.Cn1c(=N)n(CC(O)COc2ccccc2)c2ccccc21` (racemic) [Compound 44], the “% inhibition” value worked out at 27%.

Consider `C=CCn1c(=N)n(CC(O)COc2ccc(Cl)cc2)c2ccccc21.Cl` (racemic) [Compound 46], for which the “% inhibition” value was found to be 29%. As for `COc1ccc(C(O)Cn2c(=N)n(Cc3ccccc3)c3ccccc32)cc1.Cl` (racemic) [Compound 47], the “% inhibition” value is recorded as 32%. The same measure, in the same setting: to `CCCn1c(=N)n(CC(O)c2ccc(Cl)cc2)c2ccccc21.Cl` (racemic) [Compound 48] belongs 32%. Still for that read-out and setting: with `C=CCn1c(=N)n(CC(O)c2ccc(C)cc2)c2ccccc21.Cl` (racemic) [Compound 50] the figure was 33%; with `CN(C)CCn1c(=N)n(CC(O)c2ccc(Cl)c(Cl)c2)c2ccccc21.Cl` (racemic) [Compound 51], 36%. Consider `CCN(CC)CCn1c(=N)n(CC(O)COc2ccccc2)c2ccccc21.Cl` (racemic) [Compound 55], for which the “% inhibition” value is “— (key: —: A dash (-) indicates less than 10% inhibition was observed in this test)”. Same read-out and setting: to `CCN(CC)CCn1c(=N)n(CC(O)COc2ccc(Cl)cc2)c2ccccc21.Cl` (racemic) [Compound 56] belongs “— (key: —: A dash (-) indicates less than 10% inhibition was observed in this test)”; to `Cl.Cn1c(=N)n(CC(O)COc2ccc(Cl)cc2)c2ccccc21` (racemic) [Compound 57], “— (key: —: A dash (-) indicates less than 10% inhibition was observed in this test)”; to `CC(C)(C)C(O)Cn1c(=N)n(Cc2ccc(Cl)cc2)c2ccccc21.Cl` (racemic) [Compound 59], “— (key: —: A dash (-) indicates less than 10% inhibition was observed in this test)”. Turning to `CCCCn1c(=N)n(CC(O)c2ccc(Br)cc2)c2ccccc21.Cl` (racemic) [Compound 62], the “% inhibition” value is given as “— (key: —: A dash (-) indicates less than 10% inhibition was observed in this test)”.

`C=CCn1c(=N)n(CC(O)c2ccc(Cl)cc2)c2ccccc21.Cl` (racemic) [Compound 64]: the “% inhibition” value was “— (key: —: A dash (-) indicates less than 10% inhibition was observed in this test)”. The same measure, in the same setting: with `Cl.N=c1n(Cc2ccc(Cl)cc2)c2ccccc2n1CC(O)c1ccco1` (racemic) [Compound 68] the entry was “— (key: —: A dash (-) indicates less than 10% inhibition was observed in this test)”; with `CC(C)(C)C(O)Cn1c(=N)n(CCN2CCCCC2)c2ccccc21.Cl` (racemic) [Compound 69], 18%. For the compound `Br.N=c1n(Cc2cccc3ccccc23)c2ccccc2n1CC(O)COc1ccccc1` (racemic) [Compound 73], the “% inhibition” value is reported as “— (key: —: A dash (-) indicates less than 10% inhibition was observed in this test)” and the IC50 worked out at 107 µM. For `Br.CCCCCCCCCCCn1c(=N)n(CC(O)COc2ccccc2)c2ccccc21` (racemic) [Compound 74], in that order: 33% and 117 µM.

As for `Br.N=c1n(CCN(Cc2ccccc2)Cc2ccccc2)c2ccccc2n1CC(O)COc1ccccc1` (racemic) [Compound 76], the “% inhibition” value is “— (key: —: A dash (-) indicates less than 10% inhibition was observed in this test)” and the IC50 came out at 100 µM. Taken in the same sequence, the figures for `Br.N=c1n(Cc2ccccc2)c2ccccc2n1CC(O)Cc1ccccc1` (racemic) [Compound 77] were 27% and 81 µM. `CC(C)(C)c1ccc(Cn2c(=N)n(CC(O)COc3ccccc3)c3ccccc32)cc1.Cl` (stereo not shown) [Compound 12]: the “% inhibition” value was 59% and the IC50 was determined as 34 µM. Taken in the same sequence, the figures for `Cl.Cn1c(=N)n(CC(O)c2ccc(Cl)c(Cl)c2)c2ccccc21` (stereo not shown) [Compound 13] were 46% and 232 µM.

For `Cl.N=c1n(Cc2ccc(Cl)cc2)c2ccccc2n1CC(O)COc1ccccc1` (stereo not shown) [Compound 14], the “% inhibition” value is on record as 16%.

Consider `Cl.N=c1n(Cc2ccc(Cl)cc2)c2ccccc2n1CC(O)COc1ccc(Cl)cc1` (stereo not shown) [Compound 15], for which the “% inhibition” value was found to be 11%. On the same count and under the same terms, with `Cl.N=c1n(CCN2CCOCC2)c2ccccc2n1CC(O)c1cccs1` (stereo not shown) [Compound 16] the figure was 17%; with `CCn1c(=N)n(CC(O)c2cccs2)c2ccccc21.Cl` (stereo not shown) [Compound 17], 11%; with `CCCCn1c(=N)n(CC(O)c2ccccc2)c2ccccc21.Cl` (stereo not shown) [Compound 18], 11%.

`CCn1c(=N)n(CC(O)COc2ccccc2)c2ccccc21.Cl` (stereo not shown) [Compound 19]: the “% inhibition” value was determined as 11%.

Take `CCCn1c(=N)n(CC(O)COc2ccccc2)c2ccccc21.Cl` (stereo not shown) [Compound 20]: the “% inhibition” value is 12%. Regarding `Cl.Cn1c(=N)n(CC(O)C23CC4CC(CC(C4)C2)C3)c2ccccc21` (stereo not shown) [Compound 23], the “% inhibition” value is 15%. On the same count and under the same terms, to `CC(O)Cn1c(=N)n(Cc2ccccc2)c2ccccc21.Cl` (stereo not shown) [Compound 24] belongs 16%. Same read-out and setting: to `CC(C)(C)C(O)Cn1c(=N)n(Cc2ccccc2)c2ccccc21.Cl` (stereo not shown) [Compound 26] belongs 17%; to `CCN(CC)CCn1c(=N)n(CC(O)c2ccc(C)cc2)c2ccccc21.Cl` (stereo not shown) [Compound 28], 17%; to `CCCn1c(=N)n(CC(O)COc2ccc(Cl)cc2)c2ccccc21.Cl` (stereo not shown) [Compound 29], 18%. The same measure, in the same setting: to `Cl.N=c1n(CCN2CCCCC2)c2ccccc2n1CC(O)c1ccccc1` (stereo not shown) [Compound 30] belongs 18%; to `Cl.N=c1n(CCN2CCCCC2)c2ccccc2n1CC(O)c1cccc2ccccc12` (stereo not shown) [Compound 32], 20%; to `Cl.Cn1c(=N)n(CC(O)c2cccs2)c2ccccc21` (stereo not shown) [Compound 34], 20%. In the case of `Cl.N=c1n(CCN2CCCCC2)c2ccccc2n1CC(O)c1cccs1` (stereo not shown) [Compound 38], the “% inhibition” value was 22%.

One may read the % inhibition as the drop in the measured response relative to a control, in per cent. The term IC50 denotes the midpoint of a concentration-inhibition curve. A high value points to weaker potency in that assay.

The values above are taken from patent US7868028B2 (priority 2002, dated 2011).
